The text below walks through data of ChEMBL document CHEMBL5131375, “Recent Developments in the Use of Kinase Inhibitors for Management of Viral Infections” (J Med Chem, 2022).

Data set [1] can be described thus: Cytotoxicity against human HCE cells. In kind it is toxicity, cell-based.
Data set [2] is described as follows: in vitro. The note with it: human, HeLa cells.
Data set [3] can be described thus: Cytotoxicity against HEK cells. The format is toxicity, cell-based. Particulars: human.
The subject of the next data set is Human alphaherpesvirus 2. Description: Antiviral activity against HSV-2 assessed as reduction in virus titre at 10 uM relative to control. Also on record: scale not given: the % may be the effect or the level left. The format is functional.
For data set [4], the target named is Inhibitor of nuclear factor kappa-B kinase subunit epsilon (Homo sapiens, UniProt Q14164). Description: Inhibition of IKK epsilon (unknown origin).
Inhibitor of nuclear factor kappa-B kinase subunit epsilon, sequence (Q14164 whole entry): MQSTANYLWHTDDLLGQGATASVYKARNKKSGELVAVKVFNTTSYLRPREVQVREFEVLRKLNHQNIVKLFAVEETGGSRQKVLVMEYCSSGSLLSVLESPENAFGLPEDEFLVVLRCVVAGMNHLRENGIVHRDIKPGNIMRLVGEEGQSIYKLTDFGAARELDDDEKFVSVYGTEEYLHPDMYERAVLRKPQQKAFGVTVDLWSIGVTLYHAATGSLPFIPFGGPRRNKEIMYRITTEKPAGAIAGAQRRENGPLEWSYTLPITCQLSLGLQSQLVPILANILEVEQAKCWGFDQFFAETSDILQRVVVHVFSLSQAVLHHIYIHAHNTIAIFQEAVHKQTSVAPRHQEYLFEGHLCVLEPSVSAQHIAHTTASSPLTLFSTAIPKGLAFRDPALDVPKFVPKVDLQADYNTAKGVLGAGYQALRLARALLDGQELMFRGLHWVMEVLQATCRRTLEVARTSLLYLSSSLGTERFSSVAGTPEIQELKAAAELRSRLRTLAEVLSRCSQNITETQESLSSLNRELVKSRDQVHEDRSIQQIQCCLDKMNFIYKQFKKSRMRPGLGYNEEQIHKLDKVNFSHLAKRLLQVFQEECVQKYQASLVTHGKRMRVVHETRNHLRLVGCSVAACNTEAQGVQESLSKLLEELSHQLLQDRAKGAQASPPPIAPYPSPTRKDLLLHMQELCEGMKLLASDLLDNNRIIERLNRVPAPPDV
Another data set has as its system Human alphaherpesvirus 1. Description: microbe, parasite or virus in culture. The format is functional, organism-based.
A short description of data set [5]: Cytotoxicity against human A549 cells. In kind it is toxicity, cell-based.
Data set [6] in a line: Cytotoxicity against human NCI-H358 cells. The format is toxicity, cell-based.
In the next data set the target is Focal adhesion kinase 1 (Homo sapiens, UniProt Q05397). Description: Inhibition of FAK (unknown origin).
Focal adhesion kinase 1, sequence (Q05397 whole entry): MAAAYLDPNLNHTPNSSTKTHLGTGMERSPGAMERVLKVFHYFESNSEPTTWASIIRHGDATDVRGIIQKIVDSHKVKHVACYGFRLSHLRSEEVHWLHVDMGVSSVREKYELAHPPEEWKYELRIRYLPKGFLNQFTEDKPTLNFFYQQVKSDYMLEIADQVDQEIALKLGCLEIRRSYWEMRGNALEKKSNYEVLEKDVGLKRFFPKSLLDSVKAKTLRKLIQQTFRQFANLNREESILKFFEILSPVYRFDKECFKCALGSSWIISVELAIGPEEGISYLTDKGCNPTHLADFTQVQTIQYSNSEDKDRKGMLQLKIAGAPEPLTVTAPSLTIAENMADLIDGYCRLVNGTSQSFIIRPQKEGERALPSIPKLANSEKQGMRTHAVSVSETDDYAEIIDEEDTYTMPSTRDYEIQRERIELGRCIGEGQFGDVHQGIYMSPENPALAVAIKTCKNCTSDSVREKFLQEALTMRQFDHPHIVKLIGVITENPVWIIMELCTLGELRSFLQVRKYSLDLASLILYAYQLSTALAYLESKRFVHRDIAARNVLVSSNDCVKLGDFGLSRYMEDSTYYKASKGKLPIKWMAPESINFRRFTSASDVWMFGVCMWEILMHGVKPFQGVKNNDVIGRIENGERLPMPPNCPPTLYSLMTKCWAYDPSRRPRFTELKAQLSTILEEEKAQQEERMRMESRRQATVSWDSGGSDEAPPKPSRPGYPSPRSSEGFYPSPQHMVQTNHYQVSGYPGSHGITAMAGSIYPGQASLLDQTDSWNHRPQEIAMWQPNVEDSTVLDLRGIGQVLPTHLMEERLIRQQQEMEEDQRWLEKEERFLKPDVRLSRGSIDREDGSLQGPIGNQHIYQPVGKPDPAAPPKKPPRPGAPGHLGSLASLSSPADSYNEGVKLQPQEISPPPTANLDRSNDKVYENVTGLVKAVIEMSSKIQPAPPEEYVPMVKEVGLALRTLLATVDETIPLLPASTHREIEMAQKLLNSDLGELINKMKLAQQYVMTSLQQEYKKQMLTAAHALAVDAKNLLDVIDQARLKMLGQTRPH
The nature of data set [7]: Cytotoxicity against human NCI-H1650 cells. In kind it is toxicity, cell-based.
The next data set deals with Aurora kinase B (Homo sapiens, UniProt Q96GD4). The data set is described as follows: Inhibition of aurora B kinase (unknown origin).
Aurora kinase B, sequence (Q96GD4 whole entry): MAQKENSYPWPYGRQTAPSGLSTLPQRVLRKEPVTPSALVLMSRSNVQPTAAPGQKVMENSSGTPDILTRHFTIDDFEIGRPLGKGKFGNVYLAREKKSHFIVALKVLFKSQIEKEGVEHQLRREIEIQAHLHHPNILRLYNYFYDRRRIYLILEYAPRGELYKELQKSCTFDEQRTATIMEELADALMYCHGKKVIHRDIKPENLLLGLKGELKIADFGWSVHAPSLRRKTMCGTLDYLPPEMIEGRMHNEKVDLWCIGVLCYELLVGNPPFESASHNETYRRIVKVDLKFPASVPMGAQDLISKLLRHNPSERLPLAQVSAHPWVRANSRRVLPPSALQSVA
In a further data set the test system is Zika virus. Description: microbe, parasite or virus in culture.
The nature of data set [8]: Cytotoxicity against human JEG-3 cells. The format is toxicity, cell-based.
In data set [9] the test system is Transmissible gastroenteritis virus. Description: Antiviral activity against TGEV assessed as reduction in virus titre at 4 uM. The format is functional.
For data set [10], the system named is Feline infectious peritonitis virus. The data set is described as follows: Antiviral activity against FIPV assessed as log reduction in virus progeny at 4 uM. In kind it is functional.
The nature of data set [11]: Inhibition of PDGF (unknown origin). Also on record: species or system Homo sapiens.
Data set [12] can be described thus: Cytotoxicity against pig PK-15 cells. The format is toxicity, cell-based, Sus scrofa.
Data set [13] deals with Porcine epidemic diarrhea virus. Description: Antiviral activity against PEDV assessed as log reduction in virus progeny at 4 uM. The format is functional.
The nature of data set [14]: Cytotoxicity against golden hamster BSR cells. The format is toxicity, cell-based, Mesocricetus auratus.
For the next data set, the system named is Lyssavirus rabies. Description: microbe, parasite or virus in culture. In kind it is functional, organism-based.
The next data set has as its system Influenza A virus. Description: Antiviral activity against influenza A virus infected in human A549 cells assessed as inhibition of viral replication at 4 uM relative to control. In kind it is functional. Also on record: scale not given: the % may be the effect or the level left.
In a further data set the test system is Murine coronavirus. The data set is described as follows: Antiviral activity against MHV assessed as log reduction in virus progeny at 4 uM. The format is functional.
The subject of data set [15] is Transmissible gastroenteritis virus. Description: Antiviral activity against TGEV assessed as log reduction in virus progeny at 4 uM. The format is functional.
Another data set deals with Dengue virus. The data set is described as follows: microbe, parasite or virus in culture.
For a further data set, the system named is Huh7.5.1. Description: Cytotoxicity against human Huh-7.5.1 cells at 0.9 uM. In kind it is toxicity, cell-based. Particulars: huh7.5.1, 0.9 µM.
The target in data set [16] is Receptor tyrosine-protein kinase erbB-2 (Homo sapiens, UniProt P04626).
Receptor tyrosine-protein kinase erbB-2, sequence (P04626 whole entry): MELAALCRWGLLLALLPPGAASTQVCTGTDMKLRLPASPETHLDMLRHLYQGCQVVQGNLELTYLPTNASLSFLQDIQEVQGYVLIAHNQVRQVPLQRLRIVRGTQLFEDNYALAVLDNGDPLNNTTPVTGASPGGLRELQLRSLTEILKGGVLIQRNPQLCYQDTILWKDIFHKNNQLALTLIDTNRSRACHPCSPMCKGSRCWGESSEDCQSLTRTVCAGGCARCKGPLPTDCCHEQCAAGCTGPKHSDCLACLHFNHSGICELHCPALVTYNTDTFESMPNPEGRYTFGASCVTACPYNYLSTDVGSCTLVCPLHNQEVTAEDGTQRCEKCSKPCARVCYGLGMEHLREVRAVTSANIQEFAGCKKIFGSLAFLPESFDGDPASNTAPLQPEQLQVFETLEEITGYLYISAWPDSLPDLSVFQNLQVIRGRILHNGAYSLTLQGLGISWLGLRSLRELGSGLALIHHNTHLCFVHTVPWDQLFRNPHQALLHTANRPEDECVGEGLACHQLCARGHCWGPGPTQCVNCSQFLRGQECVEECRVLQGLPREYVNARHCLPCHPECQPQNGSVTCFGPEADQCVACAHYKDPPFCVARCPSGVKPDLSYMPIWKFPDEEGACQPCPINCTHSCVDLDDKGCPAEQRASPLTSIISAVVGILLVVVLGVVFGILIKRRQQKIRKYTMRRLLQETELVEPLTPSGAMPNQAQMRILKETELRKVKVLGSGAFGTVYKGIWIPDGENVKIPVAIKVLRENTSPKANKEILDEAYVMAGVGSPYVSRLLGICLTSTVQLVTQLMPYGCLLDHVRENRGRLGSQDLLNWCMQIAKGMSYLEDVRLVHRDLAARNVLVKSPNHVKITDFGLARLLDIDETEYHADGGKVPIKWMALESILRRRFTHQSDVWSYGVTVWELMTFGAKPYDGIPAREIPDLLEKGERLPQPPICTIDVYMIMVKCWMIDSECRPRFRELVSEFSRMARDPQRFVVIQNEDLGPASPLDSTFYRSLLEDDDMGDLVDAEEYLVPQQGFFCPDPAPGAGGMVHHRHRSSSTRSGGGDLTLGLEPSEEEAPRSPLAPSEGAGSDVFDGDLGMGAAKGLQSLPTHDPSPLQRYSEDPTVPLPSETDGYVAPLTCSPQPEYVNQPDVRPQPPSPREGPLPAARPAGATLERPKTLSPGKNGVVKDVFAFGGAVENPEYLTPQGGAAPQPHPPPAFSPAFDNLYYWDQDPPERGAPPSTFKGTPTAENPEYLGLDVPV
Data set [17] in a line: in vitro. The note with it: human, l132.
In another data set the test system is Human coronavirus 229E. Description: Antiviral activity against HCoV-229E assessed as reduction of viral RNA level at 4 uM relative control. More on the design: scale not given: the % may be the effect or the level left. The format is functional.
Data set [18] in a line: Cytotoxicity against microglia (unknown origin) cells. In kind it is toxicity, cell-based.
The test system of data set [19] is dengue virus type 2. Description: Antiviral activity against DENV2 infected in hamster BHK-21 cells. The format is functional.
Data set [20] concerns dengue virus type 2. The data set is described as follows: microbe, parasite or virus in culture. The format is functional, organism-based.
Data set [21] in a line: Cytotoxicity against human CEM-T4 cells. The format is toxicity, cell-based.
Data set [22] relates to Human immunodeficiency virus 1. Description: Antiviral activity against HIV-1 assessed as inhibition of Nef mediated replication. In kind it is functional, organism-based.
Data set [23] in a line: Cytotoxicity against MDDC cells (unknown origin). In kind it is toxicity, cell-based.

Where only a bound is given, the exact number is not on record here.

In general, IC50 refers to the concentration at which inhibition is half-maximal. Broadly, the EC50 is the concentration needed to bring the measured effect to its halfway point. Turning to `O=C(NCCCNc1nc(Nc2cccc(NC(=O)N3CCCC3)c2)ncc1I)c1cccs1` [BX-795], the CC50 (in [1]; in the data set “in vitro [2]”; in [3]) was 46 µM throughout. Moreover, in the data set on Human alphaherpesvirus 2, the Activity is recorded as >90%. In data set [4], this compound gave a 50% inhibitory concentration (IC50) of 0.041 µM. In the data set on Human alphaherpesvirus 1, the EC50 was found to be 10 µM.

`Nc1cc(N)c(N)cc1N`: the CC50 in [5], in data set [6] and in data set [7] was > 1 µM throughout. This compound also showed an IC50 at Focal adhesion kinase 1 of 1 µM.

`c1cncc(CN2CCC(n3ncc4c(N5CCOCC5)nc(-c5ccc6[nH]ccc6c5)nc43)CC2)c1`: the IC50 against Aurora kinase B came to 0.25 µM. In the data set on Zika virus, this compound came in with a concentration giving a half-maximal response (EC50) of 2.28 µM and a 50% inhibitory concentration (IC50) of 2.3 µM. For the same compound, in data set [8], the CC50 was > 10 µM.

With `CC(C)(C)c1cc(C=C(C#N)C#N)cc(C(C)(C)C)c1O` [TYRPHOSTIN A9], the “log(activity)” value in [9] turned out to be 3; in data set [10] it was 2.3; in [13], 2.3; with Murine coronavirus it was 2.3; in data set [15], 2.3. This compound had an IC50 in [11] of 0.5 µM. Moreover, the CC50 is > 6 µM in data set [12] and 150 µM in data set [14]. The compound also gave an EC50 in the data set on Lyssavirus rabies of 0.9 µM. Moreover, in the data set on Influenza A virus, the Activity was determined as 50%.

On to `CCN(CC)CC1CCN(c2ncc3ncnc(Nc4ccc(F)c(Cl)c4)c3n2)CC1`, for which the IC50 came to 0.9 µM in the data set with Dengue virus and 0.29 µM in [16]. The Activity entry in the data set on Huh7.5.1 is “Non-Toxic”.

Regarding `C[S+]([O-])c1ccc(-c2nc(-c3ccc(F)cc3)c(-c3ccncc3)[nH]2)cc1` (stereo unspecified) [SB-203580], the CC50 in “in vitro [17]” was > 10 µM. For the same compound, in the data set with Human coronavirus 229E, the Activity turned out to be 60%.

What is called IC90 is the concentration needed for an effect of 90%. `NC(=O)c1cccc(-c2cc(Nc3ccc(OC(F)(F)F)cc3)ncn2)c1` gave a CC50 in [18] of 20 µM. For the same compound, in the data set on dengue virus type 2 [19], the concentration for an effect of 90% (IC90) is 15 µM. In the data set with dengue virus type 2 [20], the IC50 was found to be 15 µM.

`NC(=S)n1nc(-c2ccc([N+](=O)[O-])cc2)c(/N=N/c2cccc(Cl)c2)c1O`: the CC50 in [21] is > 10 µM. Also, in [22], the IC50 stood at 0.3 µM.

In the data set on Dengue virus, `COc1cc(-c2cnc3c(N4C[C@@H](C)O[C@@H](C)C4)snc3c2)ccc1N` showed a half-maximal effective concentration (EC50) of 3.5 µM. The CC50 in [23] is > 20 µM.
